From patent US12410391B2, “In vitro cell culture mucus systems” (The University of North Carolina at Chapel Hill, priority 2018, dated 2025)

System: human colonic epithelium (monolayer from human colonic stem cells)
Assay: VIP-stimulated water secretion into the apical reservoir under ALI culture
Format: cell-based
Description: The inserts were rinsed with PBS×1 prior to cell plating. Intestinal epithelial cells were passaged according to the procedure described above except that the cells were suspended in expansion medium (EM-Table 1) and plated directly onto the top compartment of Transwell inserts. Cells from 1 well of the 6-well plate were dispersed into 6 separate 12-well Transwell inserts (1 mL in the upper [apical] reservoir, and 2 mL in the lower [basal] reservoir). The medium was exchanged every 48 h. To induce cell differentiation and mucus production, the medium was switched to differentiation medium (DM-Table 1) after 5 days. In the submerged culture, 1 mL DM was added in the apical reservoir and 2 mL in the basal reservoir. The medium was exchanged every 48 h thereafter. In the ALI culture, the medium in the apical reservoir was completely aspirated, 1 mL DM or DM-VIP (DM containing 330 ng/mL VIP [AnaSpec, #AS-22872]) was added to the basal reservoir, and medium was exchanged every 24 h thereafter. By day 10, the system was suitable for characterization and cytokine assay.
To verify the function of VIP to stimulate water secretion, human colonic stem cells were cultured under EM for 5 days. At day 5, the basal medium was switched to DM with varying VIP concentration and the cells placed under the ALI culture conditions. After 24 h, the water accumulated in the apical reservoir was collected and weighed with an analytical balance. In the absence of VIP, the accumulation of water in the apical reservoir was not measurable. […] A plateau was reached when VIP concentration was >1 ng/mL. At this saturating concentration, approximately 42 mg/cm^2 water accumulated after a 24 h incubation with VIP, corresponding to a water depth in the reservoir of 420 μm.

For vasoactive intestinal peptide [VIP], the “VIP concentration at which plateau of water secretion was reached” value (ALI culture, 24 h) was over 1 ng/mL, the “water accumulated in apical reservoir” value (saturating VIP concentration, 24 h incubation) was “approximately 42 mg/cm^2” and the “water depth in the reservoir” value (saturating VIP concentration, 24 h incubation, corresponds to the accumulated water) was 420 μm.
